Test system: KRAS PDC tumor spheroids (HUVEC+MSC), viability
Test: Anticancer human tumor 254851-301-R-J1-PDC patient-derived colon carcinoma cell line growth inhibition [KRAS2]
Conditions: for IC50: curve of first compound; for viability, T/C: stronger effect = lower value
Method in brief: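 KRAS-mutant tumor cells were grown as spheroids with HUVEC endothelial cells and human MSCs as stroma. Targeted agents were tested alone and with KRAS pathway inhibitors. Doses started at or near clinical Cmax, or 10 microM, descending half-log.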

[1] = second compound 0.1 µM, first compound 0.0316 µM
[2] = second compound 0.1 µM, first compound 0.1 µM
[3] = second compound 0.1 µM, first compound 0.316 µM
[4] = second compound 0.1 µM, first compound 1 µM
[5] = second compound 0.1 µM, first compound 3.16 µM
[6] = second compound 0.1 µM, first compound 10 µM
[7] = second compound 0.316 µM, first compound 0.0316 µM
[8] = second compound 0.316 µM, first compound 0.1 µM
[9] = second compound 0.316 µM, first compound 0.316 µM
[10] = second compound 0.316 µM, first compound 1 µM
[11] = second compound 0.316 µM, first compound 3.16 µM
[12] = second compound 0.316 µM, first compound 10 µM
[13] = second compound 1 µM, first compound 0.0316 µM
[14] = second compound 1 µM, first compound 0.1 µM
[15] = second compound 1 µM, first compound 0.316 µM
[16] = second compound 1 µM, first compound 1 µM
[17] = second compound 1 µM, first compound 3.16 µM
[18] = second compound 1 µM, first compound 10 µM
[19] = second compound 3.16 µM, first compound 0.0316 µM
[20] = second compound 3.16 µM, first compound 0.1 µM
[21] = second compound 3.16 µM, first compound 0.316 µM
[22] = second compound 3.16 µM, first compound 1 µM
[23] = second compound 3.16 µM, first compound 3.16 µM
[24] = second compound 3.16 µM, first compound 10 µM
[25] = second compound 10 µM, first compound 0.0316 µM
[26] = second compound 10 µM, first compound 0.1 µM
[27] = second compound 10 µM, first compound 0.316 µM
[28] = second compound 10 µM, first compound 1 µM
[29] = second compound 10 µM, first compound 3.16 µM
[30] = second compound 10 µM, first compound 10 µM
[31] = second compound 0.1 µM, first compound 0.01 µM
[32] = second compound 0.316 µM, first compound 0.01 µM
[33] = second compound 1 µM, first compound 0.01 µM
[34] = second compound 3.16 µM, first compound 0.01 µM
[35] = second compound 10 µM, first compound 0.01 µM
[36] = second compound 0.1 µM, first compound 0.00316 µM
[37] = second compound 0.316 µM, first compound 0.00316 µM
[38] = second compound 1 µM, first compound 0.00316 µM
[39] = second compound 3.16 µM, first compound 0.00316 µM
[40] = second compound 10 µM, first compound 0.00316 µM
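Note: spheroids exposed to compounds for seven days before readout.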
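Throughout, for viability, T/C: 100% = DMSO vehicle control luminescence of the spheroids.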

| Compound | IC50 (second compound 0.1 µM) [nM] | IC50 (second compound 0.316 µM) [nM] | IC50 (second compound 1 µM) [nM] | IC50 (second compound 3.16 µM) [nM] | IC50 (second compound 10 µM) [nM] | viability, T/C [1] [%] | viability, T/C [2] [%] | viability, T/C [3] [%] | viability, T/C [4] [%] | viability, T/C [7] [%] | viability, T/C [8] [%] | viability, T/C [9] [%] | viability, T/C [10] [%] | viability, T/C [13] [%] | viability, T/C [14] [%] | viability, T/C [15] [%] | viability, T/C [19] [%] | viability, T/C [20] [%] | viability, T/C [25] [%] | viability, T/C [26] [%] | other results |
| --- | --- | --- | --- | --- | --- | --- | --- | --- | --- | --- | --- | --- | --- | --- | --- | --- | --- | --- | --- | --- | --- |
| CC(C)NCC(C(=O)N1CCN(c2ncnc3c2C(C)CC3O)CC1)c1ccc(Cl)cc1 (stereo not given) + CNCc1ccccc1-c1csc(C(C)Nc2nc(C)nc3cc(OC)c(OC)cc23)c1 | > 10000 | > 10000 | > 10000 | > 10000 | < 31.6 | 105 | 99.1 | 93.3 | 92 | 107 | 111 | 93.4 | 89.5 | 94.8 | 94 | 80.3 | 78.6 | 67.8 | 0.18 | 0.19 | viability, T/C [5]: 99.1%; viability, T/C [6]: 92.1%; viability, T/C [11]: 95.6%; viability, T/C [12]: 93.5%; viability, T/C [16]: 84.5%; viability, T/C [17]: 83.2%; viability, T/C [18]: 89.4%; viability, T/C [21]: 56%; viability, T/C [22]: 73.1%; viability, T/C [23]: 56.5%; viability, T/C [24]: 52.6%; viability, T/C [27]: 0.17%; viability, T/C [28]: 0.17%; viability, T/C [29]: 0.16%; viability, T/C [30]: 0.22% |
| CC1COCCN1c1cc(-c2ccnn2C)c2ccnc(-c3ccn[nH]3)c2n1 (stereo not given) + CNCc1ccccc1-c1csc(C(C)Nc2nc(C)nc3cc(OC)c(OC)cc23)c1 | 278 | 217 | 252 | < 10 | < 10 | 103 | 60.1 | 50.7 | 36 | 93.9 | 64.4 | 42.9 | 34.3 | 93.4 | 70.4 | 44.9 | 35.2 | 31.2 | 0.08 | 0.07 | viability, T/C [31]: 107%; viability, T/C [5]: 20.1%; viability, T/C [32]: 91.9%; viability, T/C [11]: 25.9%; viability, T/C [33]: 95.5%; viability, T/C [16]: 31%; viability, T/C [17]: 24.1%; viability, T/C [34]: 44.1%; viability, T/C [21]: 14.6%; viability, T/C [22]: 26.8%; viability, T/C [23]: 17%; viability, T/C [35]: 0.08%; viability, T/C [27]: 0.99%; viability, T/C [28]: 0.07%; viability, T/C [29]: 0.12% |
| CCN1CCN(Cc2ccc(Nc3ncc(F)c(-c4cc(F)c5nc(C)n(C(C)C)c5c4)n3)nc2)CC1 + CNCc1ccccc1-c1csc(C(C)Nc2nc(C)nc3cc(OC)c(OC)cc23)c1 | 661 | 514 | 489 | < 3.16 | < 3.16 | 76.8 | 69.1 | 70.9 | 40.4 | 84 | 63.1 | 59.9 | 41 | 81 | 62.6 | 63.1 | 26.4 | 21.7 | 0.09 | 0.06 | viability, T/C [36]: 91.4%; viability, T/C [31]: 94.5%; viability, T/C [37]: 110%; viability, T/C [32]: 86.2%; viability, T/C [38]: 83.4%; viability, T/C [33]: 83.6%; viability, T/C [16]: 35.8%; viability, T/C [39]: 42.2%; viability, T/C [34]: 35.1%; viability, T/C [21]: 17.9%; viability, T/C [22]: 14.7%; viability, T/C [40]: 0.07%; viability, T/C [35]: 0.09%; viability, T/C [27]: 0.07%; viability, T/C [28]: 0.11% |
| CCNC(=O)CC1N=C(c2ccc(Cl)cc2)c2cc(OC)ccc2-n2c(C)nnc21 (stereo not given) + CNCc1ccccc1-c1csc(C(C)Nc2nc(C)nc3cc(OC)c(OC)cc23)c1 | > 10000 | > 10000 | > 10000 | < 31.6 | < 31.6 | 106 | 91.1 | 90.4 | 99.1 | 103 | 111 | 98.3 | 92.9 | 90.4 | 101 | 92.2 | 44.8 | 43.3 | 0.08 | 0.08 | viability, T/C [5]: 96%; viability, T/C [6]: 78.6%; viability, T/C [11]: 92.4%; viability, T/C [12]: 81.9%; viability, T/C [16]: 100%; viability, T/C [17]: 92.1%; viability, T/C [18]: 73.8%; viability, T/C [21]: 38%; viability, T/C [22]: 31.3%; viability, T/C [23]: 34.4%; viability, T/C [24]: 31%; viability, T/C [27]: 0.08%; viability, T/C [28]: 0.08%; viability, T/C [29]: 0.07%; viability, T/C [30]: 0.45% |
| Cn1nccc1Nc1nccc(-c2cc3c(s2)C(C)(C)N(CCN2CCOCC2)C3=O)n1 + CNCc1ccccc1-c1csc(C(C)Nc2nc(C)nc3cc(OC)c(OC)cc23)c1 | 2080 | 2500 | 1610 | < 31.6 | < 31.6 | 106 | 97.4 | 99.6 | 89.8 | 90.7 | 94.5 | 86.7 | 81.3 | 95.4 | 106 | 93.3 | 25.9 | 51 | 0.09 | 0.11 | viability, T/C [5]: 27.4%; viability, T/C [6]: 3.87%; viability, T/C [11]: 42%; viability, T/C [12]: 4.06%; viability, T/C [16]: 77.4%; viability, T/C [17]: 11.2%; viability, T/C [18]: 3.35%; viability, T/C [21]: 58%; viability, T/C [22]: 24.2%; viability, T/C [23]: 0.16%; viability, T/C [24]: 0.12%; viability, T/C [27]: 0.08%; viability, T/C [28]: 0.06%; viability, T/C [29]: 0.06%; viability, T/C [30]: 0.09% |
| Cn1ncnc1[C@H]1c2n[nH]c(=O)c3cc(F)cc(c23)N[C@@H]1c1ccc(F)cc1 + CNCc1ccccc1-c1csc(C(C)Nc2nc(C)nc3cc(OC)c(OC)cc23)c1 | > 100 | > 100 | > 100 | > 100 | < 0.316 | 95.6 | 93.6 | – | – | 94.5 | 92.5 | – | – | 86.9 | 95.2 | – | 67.9 | 63.6 | 0.22 | 0.23 | viability, T/C (second compound 0.1 µM, first compound 0.000316 µM): 94.9%; viability, T/C (second compound 0.1 µM, first compound 0.001 µM): 90.7%; viability, T/C [36]: 92.4%; viability, T/C [31]: 96.9%; viability, T/C (second compound 0.316 µM, first compound 0.000316 µM): 90.6%; viability, T/C (second compound 0.316 µM, first compound 0.001 µM): 95.6%; viability, T/C [37]: 98.8%; viability, T/C [32]: 85.4%; viability, T/C (second compound 1 µM, first compound 0.000316 µM): 101%; viability, T/C (second compound 1 µM, first compound 0.001 µM): 97.8%; viability, T/C [38]: 93.9%; viability, T/C [33]: 84%; viability, T/C (second compound 3.16 µM, first compound 0.000316 µM): 66.3%; viability, T/C (second compound 3.16 µM, first compound 0.001 µM): 65%; viability, T/C [39]: 64.3%; viability, T/C [34]: 63.7%; viability, T/C (second compound 10 µM, first compound 0.000316 µM): 0.23%; viability, T/C (second compound 10 µM, first compound 0.001 µM): 0.23%; viability, T/C [40]: 0.25%; viability, T/C [35]: 0.21% |

Reference: PubChem BioAssay AID1963868 (Molecular Pharmacology Branch, DTP, NCI, 2024)
